Test results from patent US20240300934A1, “COMPOUNDS FOR MODULATING MYCOBACTERIUM TUBERCULOSIS RESPONSE” (priority 2021, published 2024).
Converted amounts (≈) assume the structure as drawn. Read-outs that look alike come from different tables or passages of the source.

Key:
[1] = Kinetic aqueous solubility in pH 7.4 PBS; format: physicochemical; settings: read-out: Kinetic Aqueous Solubility S
Experimental: (§1) Assays examining mouse and human liver microsomal stability, kinetic aqueous solubility, mouse and human plasma protein binding and stability, and human cytochrome P450 inhibition characteristics of the compounds were run by BioDuro, Incorporated, using standard protocols as previously described (Wang et al, 2020). hERG inhibition assays were also performed by BioDuro, Incorporated.

[2] = Mouse pharmacokinetics, single oral dose; format: in vivo, CD-1 mice; settings: for Kp at 5 h / AUC(0-t): female, single 25 mg/kg po dose; for Kp at 5 h: CD-1, mouse, lung vs plasma, read-out: Mouse PK Clung/Cplasma at t = 5 h; for AUC(0-t): mouse, CD-1 mice, read-out: Mouse PK AUC0-5h
Experimental: Blood samples were collected in K2EDTA coated tubes pre-dose, 0.5, 1, 3 and 5 hrs post-dose, placed on ice, and centrifuged to recover plasma. The recovered plasma was kept at −80° C. as needed prior to analysis, which was performed as previously described (Wang et al, 2020). In brief, a Sciex Applied Biosystems Qtrap 4000 triple-quadrupole mass spectrometer coupled to an Agilent 1260 HPLC system was used for HPLC coupled to tandem mass spectrometry (LC-MS/MS) quantitative analysis of the samples, with chromatography attained using an Agilent Zorbax SB-C8 column (2.1×30 mm; particle size, 3.5 μm) and a reverse phase gradient elution. The aqueous mobile phase consisted of Milli-Q deionized water with 0.1% formic acid (A), while the organic mobile phase was 0.1% formic acid in acetonitrile (B). The gradient set-up was as follows: 5-90% B over 2 mins, 1 min at 90% B, then an immediate drop to 5% B and an additional 1 min at 5% B. Quantification of molecules was carried out via multiple-reaction monitoring of parent/daughter transitions in electrospray positive-ionization mode, and sample analyses accepted if quality control and standard samples had concentrations within 20% of the nominal concentration. Preparation of compounds for generation of standard curves and quality control spiking solutions were performed as previously described (Wang et al, 2020). Data were processed using Analyst software (Version 1.6.2; Applied Biosystems Sciex).

[3] = Mouse liver microsomal stability; format: in vitro ADME; settings: mouse liver microsomes; for half-life: read-out: MLM t1/2
Experimental: as §1

[4] = system: rv2390c′::GFP reporter Mtb strain; format: cell-based, Mycobacterium tuberculosis; settings: for rv2390c′::GFP reporter signal upon Mtb exposure to high [Cl−] (in words): 10 μM, 250 mM NaCl; for rv2390c′::GFP Cl− response phenotype: compared to C6
[5] = system: Mtb in J774 cells; test: Mtb growth in J774 macrophage-like cells (mKO fluorescence); format: cell-based, Mycobacterium tuberculosis; settings: for Mtb growth in J774 cells (in words): 10 μM, 6 days post-infection; for % Reduction of Intracellular Infection (J774.1 cells) at 10 μM cmpd: 10 μM compound; for Inhibition of Mtb growth in J774 cells phenotype: compared to C6
Experimental: For the tertiary screen of selected hit compounds in J774 murine macrophage-like cells, 30,000 J774 cells/well were seeded in bar-coded 384-well black, clear bottom plates in a 30 μl volume in J774 infection media (DMEM+10% FBS+1 mM sodium pyruvate+2 mM L-glutamine) using a ThermoFisher Multidrop Combi reagent dispenser, one day prior to assay start. On the day of the assay, log-phase Mtb constitutively expressing mKO were pelleted and resuspended in 1 ml basal uptake buffer (0.5% bovine serum albumin+25 mM dextrose+0.5 mM MgCl2+1 mM CaCl2+0.1% gelatin in phosphate buffered saline (PBS), passed 6× though a tuberculin syringe with a 25 G×5/8″ needle, then resuspended in J774 infection media to a final OD600=0.2. 10 μl of this bacterial suspension was added to each well of the 384-well plates containing the J774 cells, followed by addition of 10 μl of the appropriate compounds (pre-aliquoted in v-bottom plates in a 1:1 mix of PBS:J774 infection media). Addition of Mtb and compounds were conducted using a Janus Ministation. For each test plate, two columns of controls (16 wells each) were included, with one column consisting of treatment with DMSO as a carrier control (negative control), and the other column consisting of treatment with 5 μM rifampicin (positive control). This tertiary assay was done as a dose-response assay in duplicate runs, with compounds tested beginning at a final concentration of 20 μM and two-fold dilutions down to 0.039 μM. Plates were kept in humidified ziplock bags in a 37° C., 5% CO2 incubator. 6 days post-infection, mKO fluorescence signal was read using a PerkinElmer EnVision multimode plate reader (bottom read filter, excitation 530/8 nm, Bodipy TMR D555 single mirror, emission 579/25 nm). mKO fluorescence in DMSO-treated control samples were defined as 100% growth, and fluorescence observed in treatment conditions calculated as a percentage from that set value.
For J774 infection in 96-well plates, 180,000 J774 cells were seeded per well in 180 μl of J774 infection media one day prior to infection. On the day of the assay, log-phase Mtb constitutively expressing mKO were pelleted and resuspended in 1 ml basal uptake buffer, passed 6× though a tuberculin syringe with a 25 G×5/8″ needle, then resuspended in J774 infection media to a final OD600=0.2. Media was removed from 96-well plate containing the J774 cells, with 140 μl of fresh J774 infection media added back to each well. 40 μl of the Mtb suspension at OD600=0.2 was added to each well, followed by addition of appropriate concentration of compound or DMSO in a 20 μl final volume in J774 infection media (compound final concentration 10 μM, rifampicin final concentration 5 μM, DMSO final concentration 0.1%/well). Bacterial mKO fluorescence was read immediately after infection using a Biotek Synergy Neo2 microplate reader (bottom read monochromator, excitation 543/10 nm, emission 565/10 nm), and again 6 days post-infection. Plates were kept in humidified ziplock bags in a 37° C., 5% CO2 incubator. mKO fluorescence in DMSO-treated control samples were defined as 100% growth, and fluorescence observed in treatment conditions calculated as a percentage from that set value.

[6] = system: Mtb in bone marrow-derived macrophages (BMDMs); test: Mtb growth in primary murine bone marrow-derived macrophages (CFU); format: cell-based, Mycobacterium tuberculosis; settings: 10 μM; added 2 hrs post-infection; eight-day time-course
Experimental: C57BL/6J wild type mice (Jackson Laboratories) were used for extraction of bone marrow-derived macrophages. Cells were harvested and expanded in DMEM containing 10% FBS, 15% L-cell conditioned media, 2 mM L-glutamine, 1 mM sodium pyruvate, and penicillin/streptomycin as needed in a 37° C. incubator in a 5% CO2 atmosphere. […] Macrophages were lysed with water containing 0.01% sodium dodecyl sulfate and a dilution series of the samples plated on 7H10 agar for CFU determination.

[7] = system: murine bone marrow derived macrophages phagosome; test: Phagosomal maturation assays with sensor beads; format: cell-based, mouse; settings: 10 μM
Experimental: Carboxyfluorescein (pH readout), DQ-BSA/Alexa Fluor 594 (AF594) (proteolysis readout), and 10,10′-Bis[3-carboxylpropyl]-9,9′-biacridinium (BAC)/AF594 (Cl^− readout) beads were generated as previously described (Podinovskaia et al, 2013; Tan et al, 2013; Tan et al, 2017; Yates et al, 2008). Bone marrow-derived macrophages were isolated from C57BL/6J mice (Jackson Laboratories) and maintained as described above. 2×10^5 macrophages/well were seeded into 96-well clear bottom black plates, and utilized in assays one-two days post-seeding. […] Assay buffer consisted of PBS, pH 7.2, supplemented with 5% FBS, 5 mM dextrose, 1 mM CaCl2, 2.7 mM KCl, and 0.5 mM MgCl2 in the case of assays with the carboxyfluorescein or DQ-BSA/AF594 beads (Buter et al, 2019; Dutta et al, 2020). For assays with the BAC/AF594 beads, assay buffer consisted of PBS, pH 7.2, supplemented with 5% FBS, 5 mM dextrose, 1 mM calcium acetate, 1.35 mM K2SO4, and 0.5 mM MgSO4 (Tan et al, 2013). Sensor beads at ˜2-5 beads/macrophage in appropriate assay buffer were finally added, with data acquisition on a Biotek Synergy H1 microplate reader with bottom read signal detection started within 2-3 minutes of bead addition. Excitation/emission wavelengths were 450 nm/520 nm and 490 nm/520 nm for carboxyfluorescein, 490 nm/520 nm for DQ-BSA, 365 nm/505 nm for BAC, and 590 nm/617 nm for AF594. Each experiment was run with a total of 3-5 replicate wells/condition, with temperature maintained at 37° C. throughout the assay. Wells were read every 2 minutes for 2 hours for the carboxyfluorescein bead assays, every 2 minutes for 4 hours for the DQ-BSA/AF594 bead assays, and every 1 minute for 2 hours for the BAC/AF594 bead assays. Analyses of the results were performed as previously described (Buter et al, 2019; Dutta et al, 2020; Podinovskaia et al, 2013; Tan et al, 2013).

[8] = system: Mtb; test: Mtb growth assay in cholesterol media (OD600); format: cell-based, Mycobacterium tuberculosis; settings: for Growth inhibition in cholesterol media phenotype: compared to C6
[9] = system: J774 cells; test: Intracellular drug accumulation assay in J774 cells; settings: 24 h exposure; uninfected J774 cells
[10] = system: Mtb; test: C3HeB/FeJ murine Mtb infection model; format: in vivo, C3HeB/FeJ mice; settings: 150 mg/kg, 5 days/week oral gavage for 2 weeks, started 2 or 6 weeks post-infection
Experimental: C3HeB/FeJ wild type mice (Jackson Laboratories) were infected intranasally with 10^3 CFUs of Mtb (35 μl), under light anesthesia with 2% isoflurane (MacGilvary et al, 2019; Sukumar et al, 2014; Tan et al, 2013). […] The next day the suspension was homogenized by bead beating with 5 mm steel beads in a TOMY microtube mixer (2×20 s), and stored at 4° C. until use. […] Administration began at two or six weeks post-infection as indicated. At time of sacrifice, the left lobe and accessory right lobe of the lung were homogenized in PBS+0.05% Tween 80 and serial dilutions plated on 7H10 agar plates with 100 μg/ml cycloheximide for bacterial load determination. The remaining three right lobes were fixed in 4% PFA in PBS. One lobe was used for histological analysis by standard hematoxylin and eosin (H&E) staining (Tufts Comparative Pathology Services). A Nikon Eclipse E400 with a SPOT insight color digital camera was used to image the histology samples.

## O=C(c1cnc2ccccn12)N1CCCC(CCc2cccc(C(F)(F)F)c2)C1 (centres unmarked) [Compound C5, Imidazo[1,2-a]pyridin-3-yl(3-(3-(trifluoromethyl)phenethyl)piperidin-1-yl)methanone]
[1]; pH 7.4 phosphate buffered saline (PBS)
  solubility kinetic: 6.67 µM (≈ 2.68 µg/mL)
[2]; single 5 mg/kg oral (po) dose, plasma, CD-1 mice (n=2)
  AUC0-5 h: 42 ng·h/mL
[3]
  MLM t1/2: 4.98 min
[4]
  rv2390c′::GFP reporter signal upon Mtb exposure to high [Cl−] (in words): increased rv2390c′::GFP reporter signal
[4]; screen hits, high chloride (250 mM NaCl, pH 6.4)
  rv2390c′::GFP response phenotype: Increases induction in high
[5]
  Mtb growth in J774 cells (in words): Mtb growth inhibition
[5]; Mycobacterium tuberculosis, J774CELLS, J774, 144 h, read-out: % inhibition compared to Rif in J774 at 10 μM
  inhibition at 10 µM: 50.9 ± 3.2%
[5]; Mycobacterium tuberculosis, J774CELLS, J774, 144 h, read-out: % inhibition compared to Rif in J774 at 20 μM
  inhibition at 20 µM: 55%
[6]
  Mtb bacterial load / growth in primary murine BMDM (in words): significant decrease in bacterial load

## CCSc1ncc(CN2CCN(c3nc4cc(C(F)(F)F)ccc4o3)CC2)cn1 [JSF-4526, 2-(4-((2-(ethylthio)pyrimidin-5-yl)methyl)piperazin-1-yl)-5-(trifluoromethyl)benzo[d]oxazole]
[1]; PBS, pH 7.4, aqueous buffer, kinetic from dmso stock, Table 2
  solubility kinetic: 38.6 µM (≈ 16.3 µg/mL)
[2]
  Kp at 5 h: 0.44
[2]; plasma
  AUC(0-t): 27500 ng·h/mL
[3]
  half-life: 32 min
[4]
  rv2390c′::GFP Cl− response phenotype: Y
[5]
  % Reduction of Intracellular Infection (J774.1 cells) at 10 μM cmpd: 52.4 ± 1.4%
  Inhibition of Mtb growth in J774 cells phenotype: Y

## CCSc1ncc(CN2CCN(c3nc4ccccc4[nH]3)CC2)cn1 [JSF-4299, 2-(4-((2-(ethylthio)pyrimidin-5-yl)methyl)piperazin-1-yl)-1H-benzo[d]imidazole]
[7]; DQ-BSA/AF594 beads
  macrophage phagosomal proteolytic activity: decrease in the extent of proteolysis
[7]; carboxyfluorescein beads
  macrophage phagosomal acidification: delay in acidification
[4]
  rv2390c′::GFP Cl− response phenotype: Y
[8]
  Growth inhibition in cholesterol media phenotype: Y
[5]
  Inhibition of Mtb growth in J774 cells phenotype: Y

## c1ccc2oc(N3CCN(Cc4cncnc4)CC3)nc2c1 [JSF-4297, 2-(4-(pyrimidin-5-ylmethyl)piperazin-1-yl)benzo[d]oxazole]
[4]
  rv2390c′::GFP reporter signal upon Mtb exposure to high [Cl−] (in words): lost the ability
  rv2390c′::GFP Cl− response phenotype: N
[8]; 10 μM, OD600
  Mtb growth in cholesterol media (in words): no longer inhibited Mtb growth in cholesterol media
[8]
  Growth inhibition in cholesterol media phenotype: N
[5]
  Mtb growth in J774 cells (in words): loss of the ability to inhibit Mtb growth
  Inhibition of Mtb growth in J774 cells phenotype: N
[9]
  intracellular accumulation in J774 cells: no detectable accumulation
[6]
  Mtb bacterial load / growth in primary murine BMDM (in words): loss of the ability to inhibit Mtb growth

## CCSc1ncc(CN2CCN(c3nc4ccc(C#N)cc4o3)CC2)cn1 [JSF-4538, 2-(4-((2-(ethylthio)pyrimidin-5-yl)methyl)piperazin-1-yl)benzo[d]oxazole-6-carbonitrile]
[2]
  Kp at 5 h: 0.3
[2]; plasma
  AUC(0-t): 98700 ng·h/mL
[3]
  half-life: 25.5 min
[10]
  Mtb growth in vivo (lung CFUs): inhibits Mtb growth in vivo
[4]
  rv2390c′::GFP Cl− response phenotype: Y
[5]
  % Reduction of Intracellular Infection (J774.1 cells) at 10 μM cmpd: 36.4 ± 2.6%
